Columns and labels:
LecB (PAO1) = target: T1, LecB (PAO1) (Pseudomonas aeruginosa, UniProt Q9HYN5); assay: Competitive assay on microarray: glycans in solution compete with immobilized fucocluster F1 for Alexa 647-LecB; assay type: binding; set-up: key: A Grade A was given for oligosaccharides that were able to reduce 80 to 40% of the fluorescent signal at a concentration of 0.1 µM and to reduce it by more than 90% at concentrations of 1, 5 and 15 µM; Grade B indicated a decrease of fluorescence by 70% to 90% at 1 µM and more than 90% at 5 and 15 µM; Grade C corresponded to a decrease of 50 to 70% for 1 µM, around 80% for 5 µM and more than 90% at 15 µM; D indicated a decrease of less than 50% for 1 µM and 80% at 5 and 15 µM; When no inhibition was observed for the four concentrations tested, the grade was E; conditions: glycan at 0.1, 1.0, 5.0 and 15 µM, Alexa 647-LecB 0.12 µM
T1 construct: purchased Elicityl
Procedure: F1 was immobilized on a DNA chip, thanks to its DNA sequence. The distance between two F1 on the surface was estimated to be nearly 50 nm. Therefore, the lectin LecB can only bind to one F1 glycocluster at the time. The binding of immobilized F1 to LecB was competed with each of the 156 glycans at four different concentrations (0.1, 1.0, 5.0 and 15 µM). For each glycan and each concentration, the alexa 647-LecB fluorescent signal was recorded and averaged over 16 spots, leading to four-point competition histograms (Figure 2 and Figure S2). 100% signal (see Figure 2) corresponded to the fluorescent signal measured with a reference assay under which no competition could occur. Glycans able to compete with F1 to bind LecB lead to a decrease of the fluorescent signal. Therefore, for a given glycan concentration, strong binding glycans lead to stronger decrease of the fluorescent signal so to lower percentages. Accordingly, tested glycans were classified qualitatively into 5 groups (A, B, C, D and E) depending to their ability to reduce the measured fluorescent signal at the four different concentrations (Figure 2 and Table 1). Grade A are stronger competitor than grade B which are stronger than grade C, and so on. A Grade A was given for oligosaccharides that were able to reduce 80 to 40% of the fluorescent signal at a concentration of 0.1 µM and to reduce it by more than 90% at concentrations of 1, 5 and 15 µM. Grade B indicated a decrease of fluorescence by 70% to 90% at 1 µM and more than 90% at 5 and 15 µM. Grade C corresponded to a decrease of 50 to 70% for 1 µM, around 80% for 5 µM and more than 90% at 15 µM. D indicated a decrease of less than 50% for 1 µM and 80% at 5 and 15 µM.
Cy3-oligonucleotide oligoglycoclusters F1 [46] […] In each microwell, 1.5 µL of the oligoglycocluster mixture was incubated for DNA-directed immobilization (DDI) for 3 h at 37 °C in a water-saturated atmosphere. The slides were washed with saline sodium citrate (SSC) 2× SDS 0.1% at 51 °C for 1 min, SSC 2× for 5 min and rinsed with water.
A library of 156 sugars extracted from biomass or produced by bacterial fermentation (see Supporting Information) issued from the OligoTech® (Elicityl) was screened in a competitive assay. The binding of the 156 carbohydrates was screened toward the lectin LecB (PAO1, Elicityl). Lectin was labeled as previously described using the Alexa Fluor® 647 Microscale Protein Labelling Kit (Invitrogen).
On each slide, nine oligosaccharides and α-L-fucose (as a control) were tested. The inhibitory effect of each oligosaccharide was determined at four concentrations 0.1, 1.0, 5.0 and 15 µM and at 0.5, 2.5, 5.0 and 7.5 mg/L for polymers: Aliginate, galacturonan, galactomannan, glucomannan, mannan, ulvan, xylan and the glucan. To this end, the labeled LecB lectin (0.12 µM final concentration), BSA (2%, final concentration), CaCl2 (7.5 µM, final concentration) in PBS 1× (pH 7.4) were mixed with the solutions of oligosaccharides (from the OligoTech®, Crolles, France). For each concentration, 1.5 µL of the mixture was poured into a microwell, where F1 was previously immobilized. The slides were incubated for 3 h at 37 °C in a water-saturated atmosphere. In each microwell, a competition between the two types of glycoclusters (F1) and oligosaccharide occurred to bind LecB. The microarrays were washed with 0.02% PBS-Tween20 for 5 min at room temperature. The fluorescence signal emitted by the complex glycocluster/Alexa 647-lectin was detected and an average of the mean fluorescence signal of 16 spots per glycocluster was calculated. The percentage of inhibition was calculated as follows: The alexa-647 fluorescent signal for a given sugar was normalized by the Alexa 647 fluorescent signal measured at 0.1 µM of fucose.

LecB from PAO1 = conditions: read-out: dissociation constant (Kd); cited from earlier work
LecB from PA7 = target: LecB from PA7; set-up: method as in PMID 27303392; conditions: read-out: dissociation constant (Kd); cited from earlier work
LecB from PA14 = target: LecB from PA14; set-up: method as in PMID 30155149; conditions: read-out: dissociation constant (Kd); cited from earlier work
LecB = LecB (Pseudomonas aeruginosa, UniProt Q9HYN5); conditions: cited from earlier work
Sequence of LecB (Q9HYN5 entry or part of it): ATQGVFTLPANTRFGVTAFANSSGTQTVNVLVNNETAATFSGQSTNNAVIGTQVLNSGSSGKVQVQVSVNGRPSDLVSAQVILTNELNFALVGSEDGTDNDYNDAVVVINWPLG

T1 sequence (Q9HYN5 entry or part of it): as above

Compound | Grade (ability to reduce the F1/LecB fluorescent signal) (LecB (PAO1)) | also measured
Fucα1-2Galβ1-3(Fucα1-4)GlcNAcβ1-3Gal [Id. 32] | C (Grade C corresponded to a decrease of 50 to 70% for 1 µM, around 80% for 5 µM and more than 90% at 15 µM) | –
Galα1-3(Galβ1-4GlcNAcβ1-3)2Galβ1-4Glc [Id. 45] | E | –
CO[C@@H]1O[C@@H](C)[C@@H](O)[C@@H](O)[C@@H]1O [FucOMe] | – | Kd (LecB from PAO1): 0.43 µM; Kd (LecB from PA7): 2.2 µM; Kd (LecB from PA14): 0.2 µM
GalNAcα1-3(Fucα1-2)Gal [Id. 15] | D (D indicated a decrease of less than 50% for 1 µM and 80% at 5 and 15 µM) | –
CC(=O)N[C@H]1[C@H](O[C@H]2[C@@H](O)[C@@H](CO)OC(O)[C@@H]2O)O[C@H](CO)[C@@H](O[C@@H]2O[C@H](CO)[C@H](O)[C@H](O)[C@H]2O)[C@@H]1O[C@@H]1O[C@@H](C)[C@@H](O)[C@@H](O)[C@@H]1O (stereo partly shown) [Id. 26, Galβ1-4(Fucα1-3)GlcNAcβ1-3Gal] | C (Grade C corresponded to a decrease of 50 to 70% for 1 µM, around 80% for 5 µM and more than 90% at 15 µM) | –
Neu5Acα2-3Galβ1-4(Fucα1-3)GlcNAcβ1-3Gal [Id. 29] | C (Grade C corresponded to a decrease of 50 to 70% for 1 µM, around 80% for 5 µM and more than 90% at 15 µM) | –
OC[C@H]1OC(O)[C@@H](O)[C@@H](O)[C@@H]1O (stereo partly drawn) [D-mannose] | – | interaction with LecB, times weaker than L-fucose (LecB): 25 times
Nc1ccc(S(N)(=O)=O)cc1 [sulfonamide] | – | Kd (LecB; inhibitors of LecB): 3.3 µM
O=C[C@H](O)[C@@H](O)[C@@H](O)[C@H](O)CO [D-galactose] | – | recognition by LecB (LecB): not recognized
Galβ1-4(Fucα1-3)Glc [Id. 33] | B (Grade B indicated a decrease of fluorescence by 70% to 90% at 1 µM and more than 90% at 5 and 15 µM) | –
CC(=O)N[C@H]1[C@H](O[C@H]2[C@@H](O)[C@@H](CO)OC(O)[C@@H]2O)O[C@H](CO)[C@@H](O[C@@H]2O[C@@H](C)[C@@H](O)[C@@H](O)[C@@H]2O)[C@@H]1O[C@@H]1O[C@H](CO)[C@H](O)[C@H](O)[C@H]1O (stereo partly shown) [Id. 30, Galβ1-3(Fucα1-4)GlcNAcβ1-3Gal] | A (A Grade A was given for oligosaccharides that were able to reduce 80 to 40% of the fluorescent signal at a concentration of 0.1 µM and to reduce it by more than 90% at concentrations of 1, 5 and 15 µM) | –
